Key:
[1] = tested on: RAW 264.7 murine macrophages; settings: cited from earlier work
HL-60 and HCT-116 = tested on: HL-60 and HCT-116; design: method as in PMID 22298232; settings: cited from earlier work
iNOS = tested on: iNOS; design: method as in PMID 12808242; settings: cited from earlier work
HUVEC and HMEC-1 = tested on: HUVEC and HMEC-1; design: method as in PMID 21518338; settings: cited from earlier work
pancreatic tumor = tested on: pancreatic tumor; design: method as in PMID 20367887; settings: cited from earlier work
[2] = design: method as in PMID 17978478; settings: KK-A^y mice; cited from earlier work
Protein kinase C (PKC) = settings: cited from earlier work
[3] = tested on: human immunodeficiency virus (HIV-1) protease; design: method as in PMID 8759159; settings: cited from earlier work
human colon-cancer cells = tested on: human colon-cancer cells; design: method as in PMID 18790561, PMID 18298868; settings: intrinsic mitochondrial pathway; cited from earlier work
Staphylococcus aureus = tested on: Staphylococcus aureus; design: method as in PMID 21973054; settings: turbidimetric method; cited from earlier work
Candida albicans = tested on: Candida albicans; design: method as in PMID 21973054; settings: turbidimetric method; cited from earlier work
A549, Hela and SMMC-7721 = tested on: A549, Hela and SMMC-7721; design: method as in PMID 21973054; settings: data not very satisfactory; cited from earlier work
BAEC = tested on: BAEC; design: method as in PMID 16827808; settings: cited from earlier work
corneal angiogenesis = tested on: corneal angiogenesis; design: method as in PMID 16827808; settings: cited from earlier work
[4] = tested on: Lewis lung carcinoma cells; design: method as in PMID 16827808; settings: daily intraperitoneal injection, 1.5 or 3 mg/kg/day, cited from earlier work

In the case of `COc1ccc(C[C@H]2C(=O)N[C@@H](C)C(=O)N(C)[C@H]3Cc4ccc(cc4)Oc4cc(ccc4O)C[C@@H](C(=O)N[C@H](C)C(=O)N[C@@H](C)C(=O)N2C)N(C)C3=O)cc1` [Compound 71, RA-V], the “activity against NO production in LPS” value [1] is given as “exhibited activity”, the “cytotoxic activities against HL-60 and HCT-116” value (HL-60 and HCT-116) is given as “potent cytotoxicities” and the “effects on iNOS induction” value (iNOS) is given as “potent effects”. The “antiangiogenic activity in HUVEC and HMEC-1” value (HUVEC and HMEC-1) was “possessed the activity”.
For `CC1(C)CC[C@]2(C(=O)O)CC[C@]3(C)C(=CC[C@@H]4[C@@]5(C)C[C@@H](O)[C@H](O)C(C)(C)[C@@H]5CC[C@]43C)[C@@H]2C1` [Compound 9, Maslinic acid], the “effect on anti-tumor activities of TNF-α” value (pancreatic tumor) is listed as “potentiate anti-tumor activities of TNF-α”, the “pancreatic tumor growth and invasion” value (pancreatic tumor) is listed as “inhibit pancreatic tumor growth and invasion” and the “glucose-lowering and hypoinsulinemic effects” value [2] is listed as “significant glucose-lowering and hypoinsulinemic effects”. The PKC inhibition (Protein kinase C (PKC)) was “acted as a PKC inhibitor”, the “inhibition on HIV-1 protease” value [3] was “possess inhibition” and the caspase-dependent apoptosis (human colon-cancer cells) was “induce caspase-dependent apoptosis”.
For `CC(=O)O[C@@H]1C[C@@H](C(C)C)[C@]2(CO)CC[C@@]3(C)[C@H]4C(=CC[C@]3(C)[C@@H]12)[C@@]1(C)CC[C@H](O)C(C)(C)[C@@H]1C[C@@H]4O` [Compound 22, Rubiarbonol G], the “antibacterial activity against Staphylococcus aureus” value (Staphylococcus aureus) is listed as “exhibited inhibition”, the “antifungal activity against Candida albicans” value (Candida albicans) is listed as “exhibited inhibition” and the “inhibition on A549, Hela and SMMC-7721” value (A549, Hela and SMMC-7721) is listed as “had inhibition”. The melting point was 170 to 173 °C.
For `COc1ccc(C[C@H]2C(=O)N[C@@H](C)C(=O)N(C)[C@H]3Cc4ccc(cc4)Oc4cc(ccc4OC)C[C@@H](C(=O)N[C@H](C)C(=O)N[C@@H](C)C(=O)N2C)N(C)C3=O)cc1` [Compound 74, RA-VII], the “antiangiogenic activity on proliferation, migration, stress fiber formation of BAEC” value (BAEC) is listed as “antiangiogenic activity”, the mouse corneal angiogenesis (corneal angiogenesis) is listed as “effects on mouse corneal angiogenesis” and the “cytotoxic activities against HL-60 and HCT-116” value (HL-60 and HCT-116) is listed as “potent cytotoxicities”. The “growth of Lewis lung carcinoma cells inoculated into mice” value [4] was “significantly and dose dependently inhibited” and the “toxic effects on animals” value ([4]; mice) was “no toxic effects”.
